Laboratory results: patent US8962553B2, “Method of treating a diabetic subject having a microvascular impairment disorder by a pegylated C-peptide” (Cebix Ab, priority 2011, dated 2015)
Like-named read-outs stand apart in the source and are kept apart here.

Assays:
[1] = in vivo
[2] = cited from earlier work
[3] = clinical; conditions: human, in vivo
[4] = STZ rat Study #1: animal survival and clinical observations; format: in vivo; conditions: Group 5: 1.5 mg/kg over 24 h by pump, N 10, STZ rats, end of study
Protocol: Male Sprague Dawley rats (Harlan Laboratories, Inc.; Indianapolis, Ind.) weighing approximately 400 g had type 1 diabetes induced on Day 1 by intravenous administration of clinical-grade STZ (Zanosar®; 50 mg/kg in Study #1 and 33 mg/kg in Study #2). On Day 3 (Study #1) or Day 4 (Study #2), blood was collected and K3EDTA plasma was analyzed for endogenous C-peptide levels and animals with C-peptide <0.4 nM were randomized on Day 7 (Study #1) or Day 9 (Study #2) taking into account body weight and blood glucose (criterion in the range 400-600 mg/dL). Randomization was done using Covance's BRAT system.
Insulin (Lantus®, long-acting insulin glargine) was used in both studies and administered subcutaneously in the evening before the start of the 12-hour dark cycle in the animal room (time period when most food consumption takes place). In Study #1, rats were initiated on insulin after there were a number of animal deaths starting early in the study (3 days into the treatment period). All animals were receiving 3 U/day of insulin by the end of the study. […] Additionally to limit dehydration when needed throughout the studies, warm sterile saline (volume determined by veterinarian) was administered to animals, and in particular in Study #2, to animals 24 hours prior to undergoing surgery for pump implantation. […]

[5] = Single-dose pharmacokinetic study of C-peptide in patients with type 1 diabetes; conditions: human, in vivo; for Vd: 0.45 mg (150 nmol) i.v., mean ± SD
[6] = in vivo; cited from earlier work

In the case of CC(C)C[C@H](NC(=O)[C@H](C)NC(=O)[C@H](CC(C)C)NC(=O)[C@@H]1CCCN1C(=O)[C@H](CCC(N)=O)NC(=O)[C@H](CC(C)C)NC(=O)[C@H](CO)NC(=O)CNC(=O)[C@H](C)NC(=O)CNC(=O)[C@@H]1CCCN1C(=O)CNC(=O)CNC(=O)CNC(=O)[C@H](CC(C)C)NC(=O)[C@H](CCC(=O)O)NC(=O)[C@@H](NC(=O)[C@H](CCC(N)=O)NC(=O)CNC(=O)[C@@H](NC(=O)[C@H](CCC(N)=O)NC(=O)[C@H](CC(C)C)NC(=O)[C@H](CC(=O)O)NC(=O)[C@H](CCC(=O)O)NC(=O)[C@H](C)NC(=O)[C@@H](N)CCC(=O)O)C(C)C)C(C)C)C(=O)N[C@@H](CCC(=O)O)C(=O)NCC(=O)N[C@@H](CO)C(=O)N[C@@H](CC(C)C)C(=O)N[C@@H](CCC(N)=O)C(=O)O [C-peptide], the “dose required to obtain a plasma concentration of 1-3 nM” value [1] is listed as 10.5 mg/week, the “dose required to obtain a plasma concentration of 1-3 nM for most of the day” value [1] is listed as 1.5 mg/day and the half-life ([2]; healthy subjects, range of 24.9-45.3 minutes) is listed as 0.558 h. For the same molecule, the half-life ([2]; subjects with type 1 diabetes, range of 39.4-48.5 minutes) was 0.708 h, the half-life ([3]; iv, 0.45 mg) was 1.13 h and the CL/F ([3]; sc, 0.45 mg) was 290 ± 67 mL/min. It also gave a Vd/F ([3]; sc, 0.45 mg) of 28.3 ± 8.96 L, a half-life ([3]; sc, 0.45 mg) of 1.13 ± 0.35 h and a CL/F ([3]; sc, 1.8 mg) of 270 ± 47 mL/min. The Vd/F ([3]; sc, 1.8 mg) was 23.4 ± 5.27 L, the half-life ([3]; sc, 1.8 mg) was 1.02 h and the CL/F ([3]; sc, 5.4 mg) was 250 ± 41 mL/min. For the same molecule, the Vd/F ([3]; sc, 5.4 mg) was 24.4 ± 5.47 L, the half-life ([3]; sc, 5.4 mg) was 1.13 h and the “Number of Surviving Animals” value [4] was 1. The Cmax ([5]; iv, 0.45 mg) was 30.8 ± 6.57 nM, the clearance ([5]; iv, 0.45 mg) was 250 ± 46 mL/min and the Vd ([5]; iv, 0.45 mg, Vss) was 10.9 ± 1.97 L. The Vd ([5]; iv, 0.45 mg, Vz) was 25.6 ± 7.65 L, the Cmax ([5]; sc, 0.45 mg) was 3.7 ± 1.04 nM and the Tmax ([5]; sc, 0.45 mg) was 0.833 h. For the same molecule, the bioavailability ([5]; sc, 0.45 mg) was 86.9 ± 12.1%, the Cmax ([5]; sc, 1.8 mg) was 14.3 ± 3.22 nM and the Tmax ([5]; sc, 1.8 mg) was 1.08 h. For the same molecule, the Cmax ([5]; sc, 5.4 mg) was 40.3 ± 7.03 nM and the Tmax ([5]; sc, 5.4 mg) was 1.22 h.

In the case of Glargine insulin, the duration of activity [6] is listed as 24 h and the “peak time of effect” value [6] is listed as “no peak effect”.

In the case of “Regular insulin: short-acting insulin preparation”, the onset of action [6] is listed as 30 to 60 min.
